The results in this text go back to paper PMC9578143, “Small-Molecule Ebselen Binds to YTHDF Proteins Interfering with the Recognition of N^6-Methyladenosine-Modified RNAs” (ACS Pharmacology & Translational Science, 2022).

Where “and” joins values, the source holds several entries; their conditions need not be identical. Equal values may be shown once. Entries after “also recorded” stand apart in the source; their conditions may differ. Read-outs that look alike come from different tables or passages of the source. Bounds are passed on as bounds.

The target in data set [1] is T1, YTHDF1 YTH domain (Homo sapiens, UniProt Q9BYJ9).
T1 construct: The human YTHDF1 YTH domain (amino acids 365–554, PDB: 4RCJ); host or cells: E. coli BL21(DE3)
T1 sequence (Q9BYJ9 365-554): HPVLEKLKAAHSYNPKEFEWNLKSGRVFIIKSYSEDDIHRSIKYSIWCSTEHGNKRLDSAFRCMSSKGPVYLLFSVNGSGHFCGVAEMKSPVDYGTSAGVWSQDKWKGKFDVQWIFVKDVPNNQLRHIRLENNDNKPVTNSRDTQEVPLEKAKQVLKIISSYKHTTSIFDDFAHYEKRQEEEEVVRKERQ
Briefly: Tryptophan fluorescence quenching assay. The data set is classed as binding. The method, then: Fluorescence was measured using a Tecan Infinite 200 Microplate reader (Tecan Group Ltd.), setting the […] wavelength at 288 nm and collecting the emission data at 330 nm.

Data set [2] concerns the target T2, YTHDF1 domain (Homo sapiens, UniProt Q9BYJ9).
T2 construct: The human YTHDF1 YTH domain (amino acids 365–554, PDB: 4RCJ); host or cells: E. coli BL21(DE3)
T2 sequence (Q9BYJ9 365-554): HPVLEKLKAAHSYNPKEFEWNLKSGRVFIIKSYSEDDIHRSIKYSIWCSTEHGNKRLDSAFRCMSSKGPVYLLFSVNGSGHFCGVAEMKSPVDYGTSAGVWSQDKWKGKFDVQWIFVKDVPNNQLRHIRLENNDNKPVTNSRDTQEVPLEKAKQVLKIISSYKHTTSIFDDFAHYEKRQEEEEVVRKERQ
Briefly: High-throughput screen, tryptophan quenching, Z-score. The data set is classed as binding. To be noted: 5 μM protein, compounds at 10 μM. As for the experimental part:
A Z factor of 0.53 was obtained. The high-throughput screen was performed by using an automatic liquid handling (Freedom EVO, Tecan), filling black 384-well plates with 15 μL of 5 μM protein in 20 mM Tris (pH 7.5), 150 mM NaCl, and 10% glycerol, and then by adding the library of compounds at a final concentration of 10 μM. Fluorescence was measured immediately after compound addition. The library used was the Spectrum Collection (Microsource Discovery System, Inc.), composed of 2560 compounds, of whom 60% are clinically used drugs, 25% natural products, and 15% other bioactive molecules. The Z-score was calculated as (X – μp)/σp, where X is the fluorescence intensity of the protein. Candidate molecules were considered all of the ones that were under the threshold of Z = −3, while all of the ones over that value were discarded.

In data set [3] the target is T3, YTH domain of YTHDF1 / biotinylated RNA probe 5′-Bi-CCGAm6ACUGUC-3′ (Homo sapiens, UniProt Q9BYJ9).
T3 construct: The human YTHDF1 YTH domain (amino acids 365–554, PDB: 4RCJ); host or cells: E. coli BL21(DE3)
T3 sequence (Q9BYJ9 365-554): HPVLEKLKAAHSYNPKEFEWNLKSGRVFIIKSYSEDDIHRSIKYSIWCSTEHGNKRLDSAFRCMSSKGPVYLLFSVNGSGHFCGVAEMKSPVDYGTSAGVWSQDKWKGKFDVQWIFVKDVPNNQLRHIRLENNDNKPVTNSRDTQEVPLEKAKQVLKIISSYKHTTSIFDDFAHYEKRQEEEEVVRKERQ
The experiment in a line: AlphaScreen competitive assay, saturation binding. To be noted: for Disruption of the YTH/RNA interaction (AlphaScreen, in words): YTHDF1 YTH domain. As for the experimental part: The Amplified Luminescent Proximity Homogeneous Assay (ALPHA Assay) was performed in white 384-well Optiplates (PerkinElmer) in a final volume of 20 μL, and it was first optimized by titrating both the protein and the biotinylated RNA probe (5′-Bi-CCGAm6ACUGUC-3′, Dharmacon) to find the appropriate right protein/RNA ratio before the saturation of the detection signal. […] Anti-His acceptor beads (PerkinElmer) (20 μg/mL final concentration) and streptavidin donor beads (20 μg/mL final concentration) were added and the reaction was incubated in the dark at room temperature for 1 h to reach equilibrium. Light signals were detected with an Enspire Multimode Plate reader (PerkinElmer). […] The IC50 of ebselen was determined from the nonlinear regression fits of the data.
On the technique in general: Alpha assays give light when donor and acceptor beads are brought close together.

For data set [4], the target named is T4, YTHDF1 YTH domain (human, UniProt Q9BYJ9 365-554).
T4 sequence: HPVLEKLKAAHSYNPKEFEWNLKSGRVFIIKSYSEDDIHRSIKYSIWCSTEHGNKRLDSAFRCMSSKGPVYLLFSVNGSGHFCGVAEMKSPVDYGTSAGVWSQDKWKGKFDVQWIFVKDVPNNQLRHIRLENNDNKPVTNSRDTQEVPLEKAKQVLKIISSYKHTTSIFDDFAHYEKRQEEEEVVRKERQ
Briefly: dynamic mass redistribution. To be noted: EC50; immobilized protein; m6A; Fluorescence: 20 mM Hepes pH 7.5, 150 mM NaCl, 10% glycerol; REMSA: 20 mM Hepes pH 7.5, 50 mM KCl, BSA, 0.25% glycerol, gel at 4 C; AlphaScreen: 25 mM Hepes pH ….

Data set [5] deals with T4, YTHDF1 YTH domain. Briefly: tryptophan fluorescence quenching; 5 uM protein; Fluorescence: 20 mM Hepes pH 7.5, 150 mM NaCl, 10% glycerol; REMSA: 20 mM Hepes pH 7.5, 50 mM KCl, BSA, 0.25% glycerol, gel at 4 C; AlphaScreen: 25 mM Hepes pH. To be noted: protein: recombinant; tags: 6xHis (C-terminal as stated); single strand.
Data set [6] concerns the target T4, YTHDF1 YTH domain. The experiment in a line: tryptophan fluorescence quenching; EC50; 5 uM protein; Fluorescence: 20 mM Hepes pH 7.5, 150 mM NaCl, 10% glycerol; REMSA: 20 mM Hepes pH 7.5, 50 mM KCl, BSA, 0.25% glycerol, gel at 4 C; AlphaScreen: 25 mM Hepes pH. To be noted: protein: recombinant; tags: 6xHis (C-terminal as stated); single strand.
[7] abbreviates: 5 μM protein, read-out: EC50 (tryptophan quenching).
Setting [8] is: Table 1, read-out: EC50 (μM) (Tryptophan quenching).

As a reminder, the EC50 is the midpoint of the concentration-response curve. Consider 5-′CCGAm6ACUGUC-3′, for which the EC50 in data set [1] (setting [7]) was 0.14 µM and 0.139 µM.
For `O=C1C(Cl)=C(Cl)C(=O)c2c(O)ccc(O)c21` [2,3-DICHLORO-5,8-DIHYDROXYNAPTHOQUINONE], the “Mean(FI.z-score)” value in data set [2] is -3.853.
Same read-out and setting: with `O=C1C(Cl)=C(Cl)C(=O)C(Cl)=C1Cl` [CHLORANIL] the figure was -4.349.
The term IC50 denotes the concentration that inhibits the measured activity by half. For `O=c1c2ccccc2sn1-c1ccccc1` [Compound 2, 2-Phenylbenzo[d]isothiazol-3(2H)-one], in data set [1], the “Tryptophan fluorescence quenching / binding to the YTH domain (in words)” value is “maintained both capacities”. For the same molecule, in data set [1] (setting [8]), the EC50 worked out at 1.76 ± 0.02 µM. The molecule further had an IC50 in data set [3] (50 nM RNA, 50 nM protein, compound 0–100 μM) of 23140 ± 80 nM. Moreover, in data set [3], the “Disruption of the YTH/RNA interaction (AlphaScreen, in words)” value was “maintained both capacities”.
In the case of `O=C1c2ccccc2CN1c1ccccc1` [Compound 3, 2-phenylisoindolin-1-one], the “Tryptophan fluorescence quenching / binding to the YTH domain (in words)” value in data set [1] is reported as “completely abolished; also recorded: failed to generate a dose–response curve”. The EC50 in data set [1] (setting [8]) is over 100 µM. The “Disruption of the YTH/RNA interaction (AlphaScreen, in words)” value in data set [3] is recorded as “completely abolished; also recorded: failed”.
For `O=c1c2ccccc2[se]n1-c1ccc(F)cc1` [Compound 4, 2-(4-Fluorophenyl)benzo[d][1,2]selenazol-3(2H)-one], the EC50 in data set [1] (setting [8]) worked out at 1.89 ± 0.33 µM.
On to `O=c1c2ccccc2sn1-c1ccc(F)cc1` [Compound 5, 2-(4-Fluorophenyl)benzo[d]isothiazol-3(2H)-one], for which the EC50 in data set [1] (setting [8]) stood at 1.63 ± 0.89 µM.
On to `CCN(CC)CCn1[se]c2ccccc2c1=O` [Compound 6, 2-(2-(Diethylamino)ethyl)benzo[d][1,2]selenazol-3(2H)-one], for which the 50% effective concentration (EC50) in data set [1] (setting [8]) is 1.48 ± 0.26 µM.
Regarding `CCN(CC)CCn1sc2ccccc2c1=O` [Compound 7, 2-(2-(Diethylamino)ethyl)benzo[d]isothiazol-3(2H)-one], the EC50 in data set [1] (setting [8]) was determined as 1.69 ± 0.26 µM.
On the same count and under the same terms, next, `O=c1c2ccccc2[se]n1CCN1CCOCC1` [Compound 8, 2-(2-Morpholinoethyl)benzo[d][1,2]selenazol-3(2H)-one]: 3.35 ± 2.2 µM.
`O=c1c2ccccc2sn1CCN1CCOCC1` [Compound 9, 2-(2-Morpholinoethyl)benzo[d]isothiazol-3(2H)-one]: the half-maximal effective concentration (EC50) in data set [1] (setting [8]) was 2.83 ± 1.08 µM.
Take `O=C(NCCN1CCOCC1)c1ccccc1SSc1ccccc1C(=O)NCCN1CCOCC1` [Compound 10, 2,2′-Disulfanediylbis(N-(2-morpholinoethyl)benzamide)]: the EC50 in data set [1] (setting [8]) came to 2.9 ± 1.8 µM.
On to `Nc1ncnc2c1ncn2[C@@H]1O[C@H](CO)[C@@H](O)[C@H]1O` [adenosine], for which the “Tryptophan fluorescence quenching / binding to the YTH domain (in words)” value in data set [1] is recorded as “not upon adenosine addition”.
Turning to `CNc1ncnc2c1ncn2[C@@H]1O[C@H](CO)[C@@H](O)[C@H]1O` [m6A, N^6-methyladenosine], the EC50 in data set [1] (setting [7]) turned out to be 596 µM.
On to m6A RNA probe used in DMR, for which, in data set [4], the K half stood at 63.8 nM.
CCGGACUGUC (ssRNA) [GGACU ssRNA unmethylated]: in data set [5], the binding result is on record as “no binding”.
Take CCGGACUGUC (ssRNA, m6A at position 5) [GGm6ACU ssRNA (m6A-RNA)]: in data set [6], the “apparent K (half saturation)” value stood at 1050 nM.
For CCGAACUGUC (ssRNA, m6A at position 5) [GAm6ACU ssRNA], the “apparent K (half saturation)” value in data set [6] was 140 nM.
In the case of CCGAACUGUC (ssRNA) [GAACU ssRNA unmethylated], the binding result in data set [5] is given as “no binding”.
